The subject of one test is A375 cells. Kind of test: cells. The following applies: Homo sapiens, A-375, read-out: A375 Viability EC50.
For test [1], the system named is MEK1 phosphorylation in the A375 human melanoma cell line. Kind of test: cells. The following applies: A-375, read-out: pMEK IC50.
The target in test [2] is RAF kinases (Homo sapiens, UniProt P15056). The test can be described thus: biochemical.
Test [3] deals with T1, RAF kinases (Homo sapiens, UniProt P04049). The test can be described thus: biochemical.
The target in test [4] is T2, RAF kinases (Homo sapiens, UniProt P15056, V600E). The test can be described thus: biochemical.
Test [5] addresses T1, RAF kinases. The following applies: read-out: RAF1 Kd; RAF1.
In test [6] the target is T2, RAF kinases. The following applies: read-out: BRAF V600E Kd; BRAF V600E.

Like-named read-outs stand apart in the source and are kept apart here.

T1 sequence (P04049 whole entry): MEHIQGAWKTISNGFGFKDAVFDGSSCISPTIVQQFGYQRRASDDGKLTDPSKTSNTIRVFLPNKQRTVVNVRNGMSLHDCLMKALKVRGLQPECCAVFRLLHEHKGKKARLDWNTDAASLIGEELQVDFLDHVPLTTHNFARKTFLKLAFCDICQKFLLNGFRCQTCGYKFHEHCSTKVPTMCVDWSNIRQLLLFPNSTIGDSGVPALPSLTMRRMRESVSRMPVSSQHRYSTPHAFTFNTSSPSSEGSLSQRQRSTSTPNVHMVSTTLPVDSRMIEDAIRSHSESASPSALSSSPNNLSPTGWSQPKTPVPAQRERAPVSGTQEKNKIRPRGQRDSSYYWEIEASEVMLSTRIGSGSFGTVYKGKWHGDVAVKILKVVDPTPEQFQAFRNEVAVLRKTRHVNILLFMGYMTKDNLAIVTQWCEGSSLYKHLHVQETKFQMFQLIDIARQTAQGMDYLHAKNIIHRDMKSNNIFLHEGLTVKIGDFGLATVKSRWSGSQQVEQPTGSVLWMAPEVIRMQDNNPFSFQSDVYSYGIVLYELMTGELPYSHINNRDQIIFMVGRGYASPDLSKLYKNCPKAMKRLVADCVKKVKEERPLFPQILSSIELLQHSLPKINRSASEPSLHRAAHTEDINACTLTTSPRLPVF
T2 sequence (P15056 whole entry V600E): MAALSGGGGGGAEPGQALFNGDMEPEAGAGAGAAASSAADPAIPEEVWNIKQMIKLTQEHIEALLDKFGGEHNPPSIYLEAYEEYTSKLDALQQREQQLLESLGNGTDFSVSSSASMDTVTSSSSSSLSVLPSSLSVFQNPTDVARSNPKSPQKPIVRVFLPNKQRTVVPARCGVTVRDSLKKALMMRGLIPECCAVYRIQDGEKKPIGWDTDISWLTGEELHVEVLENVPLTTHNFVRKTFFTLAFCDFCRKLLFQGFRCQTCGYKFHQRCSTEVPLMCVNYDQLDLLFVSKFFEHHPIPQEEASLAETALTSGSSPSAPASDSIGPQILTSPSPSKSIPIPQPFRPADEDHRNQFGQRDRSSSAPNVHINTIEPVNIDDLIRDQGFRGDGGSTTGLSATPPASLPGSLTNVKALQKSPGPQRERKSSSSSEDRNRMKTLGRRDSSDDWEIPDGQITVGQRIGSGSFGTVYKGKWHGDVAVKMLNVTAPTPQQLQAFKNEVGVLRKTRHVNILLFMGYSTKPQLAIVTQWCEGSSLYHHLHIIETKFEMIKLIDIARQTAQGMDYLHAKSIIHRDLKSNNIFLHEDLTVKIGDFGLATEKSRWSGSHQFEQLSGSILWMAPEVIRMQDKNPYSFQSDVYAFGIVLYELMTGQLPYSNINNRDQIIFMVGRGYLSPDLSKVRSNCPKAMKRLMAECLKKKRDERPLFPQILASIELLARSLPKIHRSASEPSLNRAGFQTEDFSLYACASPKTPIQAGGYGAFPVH
Chain of RAF kinases (Homo sapiens, UniProt P15056) (P15056 whole entry): as the sequence (P15056 whole entry V600E) above, with E600V counted along it

Consider `COc1cc2ncnc(Oc3cccc(NC(=O)Nc4cc(C(C)(CF)CF)no4)c3)c2cc1OC` [Ex 159, 1-[3-(1,3-difluoro-2-methylpropan-2-yl)isoxazol-5-yl]-3-[3-(6,7-dimethoxyquinazolin-4-yloxy]phenyl)urea], for which, in the test with A375 cells, the EC50 was over 1000 nM. The IC50 in test [1] fell in the range of 250 to 500 nM. Moreover, the values for the Kd on RAF kinases [2], at RAF kinases [3] and at RAF kinases [4] were 500 to 1000 nM, 500 to 1000 nM and 250 to 500 nM, respectively.
For `COc1cc2ncnc(Sc3cccc(NC(=O)Nc4ccc(C(F)(F)F)cc4)c3)c2cc1OC` [Ex 184, 1-(3-(6,7-dimethoxyquinazolin-4-ylthio)phenyl)-3-(4-(trifluoromethyl)phenyl)urea], the EC50 with A375 cells lay within 500 to 1000 nM. Further, the IC50 in test [1] fell in the range of 250 to 500 nM. Moreover, the results for the Kd at RAF kinases [2], on RAF kinases [3] and on RAF kinases [4] were 500 to 1000 nM, 250 to 500 nM and 250 to 500 nM, respectively.
`CCOC(C)(C)c1cc(NC(=O)Nc2cccc(Sc3ncnc4cc(OC)c(OC)cc34)c2)n(-c2ccccc2)n1` [Ex 197, 1-[3-(6,7-dimethoxyquinazolin-4-ylthio)phenyl]-3-[3-(2-ethoxypropan-2-yl)-1-phenyl-1H-pyrazol-5-yl]urea]: in the test with A375 cells, the EC50 is over 1000 nM. For the same molecule, the half-inhibitory concentration (IC50) in test [1] lay in the range of 250 to 500 nM. The figures for the Kd at RAF kinases [2], on RAF kinases [3] and at RAF kinases [4] were over 1000 nM, over 1000 nM and 250 to 500 nM, respectively.
Take `COCCOc1cc2ncnc(Oc3cccc(NC(=O)Nc4cc(-c5ccccc5)on4)c3)c2cc1OC` [Ex 203, 1-(3-(6-methoxy-7-(2-methoxyethoxy)quinazolin-4-yloxy)phenyl)-3-(5-phenylisoxazol-3-yl)urea]: the EC50 in the test with A375 cells is over 1000 nM. Besides, the IC50 in test [1] is over 1000 nM. The dissociation constant Kd on RAF kinases [2], on RAF kinases [3] and at RAF kinases [4] was over 1000 nM in each case.
For `COCCOc1cc2ncnc(Oc3cccc(NC(=O)Nc4cc(C(C)(C)C)nn4C)c3)c2cc1OC` [Ex 209, 1-(3-tert-butyl-1-methyl-1H-pyrazol-5-yl)-3-(3-(6-methoxy-7-(2-methoxyethoxy)quinazolin-4-yloxy)phenyl)urea], in the test on A375 cells, the EC50 was over 1000 nM. In test [1], the IC50 was in the range of 500 to 1000 nM. The values for the Kd on RAF kinases [2], at RAF kinases [3] and on RAF kinases [4] were over 1000 nM, over 1000 nM and 250 to 500 nM, respectively.
Take `COCCOc1cc2ncnc(Oc3cccc(NC(=O)Nc4cc(C(C)(F)F)no4)c3)c2cc1OC` [Ex 211, 1-(3-(1,1-difluoroethyl)isoxazol-5-yl)-3-(3-(6-methoxy-7-(2-methoxyethoxy)quinazolin-4-yloxy)phenyl)urea]: in the test on A375 cells, the concentration giving a half-maximal response (EC50) was over 1000 nM. Further, the IC50 in test [1] was over 1000 nM. For the same molecule, the Kd on RAF kinases [2] lay within 500 to 1000 nM; at RAF kinases [3], 250 to 500 nM; at RAF kinases [4], 250 to 500 nM.
Take `COCCOc1cc2ncnc(Oc3cccc(NC(=O)Nc4cc(C(C)(CF)CF)on4)c3)c2cc1OC` [Ex 213, 1-[5-(1,3-difluoro-2-methylpropan-2-yl)isoxazol-3-yl]-3-{3-[6-methoxy-7-(2-methoxyethoxy)quinazolin-4-yloxy]phenyl}urea]: the EC50 with A375 cells was under 250 nM. For the same molecule, the Kd at RAF kinases [5] is under 250 nM; at RAF kinases [6], under 250 nM; at RAF kinases [2], 250 to 500 nM. Further, the IC50 in test [1] is under 250 nM.
Regarding `COCCOc1cc2ncnc(Oc3cccc(NC(=O)Nc4cc(C(C)(C)COC)on4)c3)c2cc1OC` [Ex 217, 1-(5-(1-methoxy-2-methylpropan-2-yl)isoxazol-3-yl)-3-(3-(6-methoxy-7-(2-methoxyethoxy)quinazolin-4-yloxy)phenyl)urea], the EC50 in the test with A375 cells was over 1000 nM. The IC50 in test [1] was in the range of 250 to 500 nM. The Kd was 250 to 500 nM on RAF kinases [2], 250 to 500 nM at RAF kinases [3] and under 250 nM on RAF kinases [4].
For the molecule `COCCOc1cc2ncnc(Oc3cccc(NC(=O)Nc4cc(C(C)(C)F)no4)c3)c2cc1OC` [Ex 218, 1-(3-(2-fluoropropan-2-yl)isoxazol-5-yl)-3-(3-(6-methoxy-7-(2-methoxyethoxy)quinazolin-4-yloxy)phenyl)urea], the EC50 with A375 cells was over 1000 nM. For the same molecule, the Kd on RAF kinases [5] was under 250 nM; on RAF kinases [6] it was under 250 nM; on RAF kinases [2], 250 to 500 nM. For the same molecule, the IC50 in test [1] lay within 250 to 500 nM.
Consider `COCCOc1cc2ncnc(Oc3cccc(NC(=O)Nc4cc(C(F)(F)F)nn4-c4ccccc4)c3)c2cc1OC` [Ex 221, 1-{3-[6-methoxy-7-(2-methoxyethoxy)quinazolin-4-yloxy]phenyl}-3-[1-phenyl-3-(trifluoromethyl)-1H-pyrazol-5-yl]urea], for which the EC50 with A375 cells lay within 500 to 1000 nM. Besides, in test [1], the IC50 lay within 250 to 500 nM. Also, the dissociation constant (Kd) on RAF kinases [2] is over 1000 nM; at RAF kinases [3], over 1000 nM; at RAF kinases [4] it was 250 to 500 nM.
In the case of `COCCOc1cc2ncnc(Oc3cccc(NC(=O)Nc4ccc(C(F)(F)F)c(F)c4)c3)c2cc1OC` [Ex 222, 1-(3-fluoro-4-(trifluoromethyl)phenyl)-3-(3-(6-methoxy-7-(2-methoxyethoxy)quinazolin-4-yloxy)phenyl)urea], in the test with A375 cells, the EC50 was over 1000 nM. For the same molecule, in test [1], the IC50 was over 1000 nM. The Kd at RAF kinases [2] was 500 to 1000 nM; on RAF kinases [3], 250 to 500 nM; at RAF kinases [4], 250 to 500 nM.
As for `COCCOc1cc2ncnc(Oc3cccc(NC(=O)Nc4cc(C(F)(F)F)no4)c3)c2cc1OC` [Ex 229, 1-(3-(6-methoxy-7-(2-methoxyethoxy)quinazolin-4-yloxy)phenyl)-3-(3-(trifluoromethyl)isoxazol-5-yl)urea], the EC50 with A375 cells is over 1000 nM. Besides, the results for the Kd on RAF kinases [5], on RAF kinases [6] and at RAF kinases [2] were under 250 nM, under 250 nM and 250 to 500 nM, respectively. Besides, the IC50 in test [1] was over 1000 nM.
Consider `COCCOc1cc2ncnc(Sc3cccc(NC(=O)Nc4cc(C5CCCC5)on4)c3)c2cc1OC` [Ex 235, 1-(5-cyclopentylisoxazol-3-yl)-3-(3-(6-methoxy-7-(2-methoxyethoxy)quinazolin-4-ylthio)phenyl)urea], for which, in the test on A375 cells, the EC50 is over 1000 nM. The results for the Kd at RAF kinases [5], on RAF kinases [6] and at RAF kinases [2] were under 250 nM, under 250 nM and 250 to 500 nM, respectively. For the same molecule, the IC50 in test [1] was 250 to 500 nM.
As for `COCCOc1cc2ncnc(Sc3cccc(NC(=O)Nc4cc(C(F)(F)F)nn4-c4ccc(F)cc4)c3)c2cc1OC` [Ex 242, 1-[1-(4-fluorophenyl)-3-(trifluoromethyl)-1H-pyrazol-5-yl]-3-{3-[6-methoxy-7-(2-methoxyethoxy)quinazolin-4-ylthio]phenyl}urea], the EC50 in the test with A375 cells was over 1000 nM. Also, the IC50 in test [1] lay in the range of 500 to 1000 nM. The Kd at RAF kinases [2], on RAF kinases [3] and on RAF kinases [4] was over 1000 nM each time.
As for `COc1cc2c(Sc3cccc(NC(=O)Nc4ccc(OC)c(C(F)(F)F)c4)c3)ncnc2cc1OCCN1CCOCC1` [Ex 249, 1-(4-methoxy-3-(trifluoromethyl)phenyl)-3-(3-(6-methoxy-7-(2-morpholinoethoxy)quinazolin-4-ylthio)phenyl)urea], the EC50 with A375 cells is over 1000 nM. For the same molecule, the IC50 in test [1] lay within 500 to 1000 nM. Besides, the Kd at RAF kinases [2] is 500 to 1000 nM; on RAF kinases [3], 500 to 1000 nM; at RAF kinases [4], 250 to 500 nM.
In the case of `COc1cc2ncnc(Sc3cccc(NC(=O)Nc4cc(C(C)(C)C(F)(F)F)on4)c3)c2cc1OC` [Ex 261, 1-(3-(6,7-dimethoxyquinazolin-4-ylthio)phenyl)-3-(5-(1,1,1-trifluoro-2-methylpropan-2-yl)isoxazol-3-yl)urea], the EC50 with A375 cells was over 1000 nM. The 50% inhibitory concentration (IC50) in test [1] is under 250 nM. The results for the Kd at RAF kinases [2], at RAF kinases [3] and on RAF kinases [4] were 250 to 500 nM, under 250 nM and under 250 nM, respectively.
For the molecule `COCCOc1cc2ncnc(Sc3cccc(NC(=O)Nc4cccc(C(C)(C)C#N)c4)c3)c2cc1OC` [Ex 281, 1-(3-(2-cyanopropan-2-yl)phenyl)-3-(3-(6-methoxy-7-(2-methoxyethoxy)quinazolin-4-ylthio)phenyl)urea], the EC50 with A375 cells is over 1000 nM. The half-maximal inhibitory concentration (IC50) in test [1] fell in the range of 250 to 500 nM. In addition, the Kd at RAF kinases [2], at RAF kinases [3] and at RAF kinases [4] was under 250 nM throughout.
As to `COc1cc2ncnc(Oc3ccc(Cl)c(NC(=O)Nc4cc(C(C)(C)C)on4)c3)c2cc1OC` [Ex 299, 1-(5-tert-butylisoxazol-3-yl)-3-(2-chloro-5-(6,7-dimethoxyquinazolin-4-yloxy)phenyl)urea], the Kd at RAF kinases [5] is under 250 nM; on RAF kinases [6], under 250 nM; at RAF kinases [2], 250 to 500 nM. Besides, in test [1], the IC50 was under 250 nM.
Regarding `COc1cc2ncnc(Oc3cccc(NC(=O)Nc4cc(C(C)(C)C)nn4-c4cccc(Cl)c4)c3)c2cc1OC` [Ex 363, 1-(3-tert-butyl-1-(3-chlorophenyl)-1H-pyrazol-5-yl)-3-(3-(6,7-dimethoxyquinazolin-4-yloxy)phenyl)urea], the Kd is over 1000 nM on RAF kinases [5], under 250 nM at RAF kinases [6] and 250 to 500 nM on RAF kinases [2]. Also, the IC50 in test [1] was under 250 nM.
Regarding `COc1cc2ncnc(Sc3cccc(NC(=O)Nc4cc(C(C)(C)C)nn4-c4cccc(Cl)c4)c3)c2cc1OC` [Ex 364, 1-(3-tert-butyl-1-(3-chlorophenyl)-1H-pyrazol-5-yl)-3-(3-(6,7-dimethoxyquinazolin-4-ylthio)phenyl)urea], the values for the Kd at RAF kinases [5], on RAF kinases [6] and on RAF kinases [2] were over 1000 nM, under 250 nM and 500 to 1000 nM, respectively. Further, the IC50 in test [1] was under 250 nM.
For `CCOc1cc2c(Oc3cccc(NC(=O)Nc4cc(C(F)(F)F)nn4-c4ccccc4)c3)ncnc2cc1OC` [Ex 391, 1-(3-(6-ethoxy-7-methoxyquinazolin-4-yloxy)phenyl)-3-(1-phenyl-3-(trifluoromethyl)-1H-pyrazol-5-yl)urea], the EC50 in the test with A375 cells is under 250 nM. Besides, the IC50 in test [1] was under 250 nM. For the same molecule, the Kd was 250 to 500 nM on RAF kinases [2], 250 to 500 nM on RAF kinases [3] and under 250 nM at RAF kinases [4].

A word on the EC50: it is the concentration giving half of the maximal effect. What is called IC50 is the concentration needed to halve the response being measured. Usually Kd stands for a measure of binding affinity in units of concentration.

The values are drawn from patent publication US8618289B2 (Ambit Biosciences Corporation, priority 2008, dated 2013).
